From article PMC7316388 (European journal of cell biology, 2010) come the findings set out here.

In the assay the target is CREB (Mus musculus, UniProt Q01147). In words: chromatin immunoprecipitation, CREB binding to c-fos promoter. Format: cell-based. To be noted: 100 μM compound with lipofectamine, 24 h, NIH3T3 cells.
Sequence of CREB (Q01147 whole entry): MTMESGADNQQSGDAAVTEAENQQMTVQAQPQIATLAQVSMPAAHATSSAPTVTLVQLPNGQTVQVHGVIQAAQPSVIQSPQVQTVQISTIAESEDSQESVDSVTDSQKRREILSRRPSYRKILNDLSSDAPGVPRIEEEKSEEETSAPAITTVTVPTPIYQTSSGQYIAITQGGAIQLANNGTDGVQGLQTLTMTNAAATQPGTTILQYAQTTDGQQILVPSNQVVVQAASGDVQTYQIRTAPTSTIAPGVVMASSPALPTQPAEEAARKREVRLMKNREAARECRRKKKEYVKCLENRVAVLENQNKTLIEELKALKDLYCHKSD

As to `O=S(=O)(O)c1cc[c]([Sb](=[O])([OH])[OH])cc1` [NSC13746], the “% reduction in CREB DNA binding at 100 μM” value was determined as 30%.
